Assay [1] has as its target GluN1/GluN2C (Rattus norvegicus, UniProt P35439+Q00961). The assay is described as follows: Whole-cell voltage-clamp recordings, HEK cells, GluN1/GluN2C (agonist dependence). As to conditions: for IC50: inhibitor and glycine preapplied. The format is cell-based. How it is done: (§1) We also evaluated the mechanism of inhibition of GluN1/GluN2C expressed in HEK cells preincubated with glycine for inhibitor 2i (DQP-997-74) by comparing inhibitor potency during the peak and steady-state current responses to glutamate application. […] The deactivation of GluN1/GluN2C receptors (0.53 ± 0.07 s) was slowed by the presence of compound 2i when applied at concentrations of 1 μM (1.3 ± 0.14 s; p = 0.001) and 3 μM (2.3 ± 0.40 s; p < 0.0001) but not at 0.1 μM (0.61 ± 0.07 s; p = 0.965) and 0.3 μM (0.88 ± 0.13 s; p = 0.115; Figure S2).
(§2) HEK293 cells (HEK, ATCC CRL-1573) were plated on glass coverslips pretreated with 0.1 mg/mL poly-D-lysine and cultured in Dulbecco’s modified Eagle medium (DMEM) plus Glutamax (GIBCO 10569-10) supplemented with 10% fetal bovine serum, 10 U/mL of penicillin, and 10 μg/mL of streptomycin at 37 °C and 5% CO2. The cells were transiently transfected with cDNA encoding rat GluN1, GluN2D, and eGFP at a ratio of 1:1:5 by using the calcium phosphate precipitation method.[48] After 24–48 h following the transfection, the cells were perfused with external recording solution that contained (in mM) 3 KCl, 150 NaCl, 0.01 EDTA, 1.0 CaCl2, 10 HEPES, and 22 D-mannitol (the pH was adjusted to 7.4 with NaOH). The patch electrodes (resistance 3–5 MΩ) were prepared from thin-walled glass micropipettes (TW150F-4, World Precision Instruments, Sarasota, FL) by a dual-stage glass micropipette puller (PC-10, Narishige, Tokyo, Japan) and filled with internal solution containing (in mM) 110 D-gluconate, 110 CsOH, 30 CsCl, 5 HEPES, 4 NaCl, 0.5 CaCl2, 2 MgCl2, 5 BAPTA, 2 NaATP, and 0.3 NaGTP. The pH was adjusted to 7.4 with CsOH; osmolality was adjusted to about 300–305 mOsmol/kg. The whole-cell current responses were evoked by application of maximally effectively concentrations of agonists (100 μM glutamate and 30 μM glycine) at a holding potential of −60 mV and recorded using an Axopatch 200B patch-clamp amplifier (Molecular Devices, Union City, CA). A two-barreled theta-glass micropipette was used for rapid solution exchange controlled by a piezoelectric translator (Burleigh Instruments, Newton, NJ). For some experiments, 500 μM NMDA and 250 μM glycine were briefly applied by pressure application from a patch pipette (tip 3–5 MΩ). The current responses were low pass filtered at 2 kHz 8-pole Bessel filter (−3 dB; Frequency Devices) and digitized at 20 kHz using Digidata 1440A acquisition system (Molecular Devices) controlled by Clampex 10.3 (Molecular Devices). All patch experiments were performed at room temperature (23 °C).
(§3) Confidence intervals were determined for the log(IC50). The time course of relaxation during inhibitor application or deactivation following rapid removal of NMDA or glutamate was fitted by the equation [drawing 5] 2 […]
(§4) μM), which is consistent with increased inhibitor potency late in the stimulus train after agonist is bound. […]
(§5) inhibition of recombinant GluN1/GluN2C receptors expressed in HEK cells. GluN1/GluN2C current responses were recorded to glutamate with pre-applied glycine and compound 2i or control (pre-applied glycine and vehicle, 0.1% DMSO; see Figure S2A). The concentration-response curves show peak and steady-state responses normalized to control (Figure S2B). A linear relationship exists between 1/τinhibition and compound 2i concentration from which kON and kOFF can be calculated (see Results, Figure S2C). The deactivation time course following rapid glutamate removal was expanded to show the slowing of receptor deactivation (τdeactivation) by compound 2i (Figure S2D). τdeactivation for individual cells as well as the mean ± SEM are plotted and data were compared by mixed effects model (F (4, 17) = 22.60, p<0.0001; asterisks indicate statistically significant differences, see Results for p -values).
(§6) 2013) and the whole cell current recordings from HEK cells of GluN1/GluN2D responses to glutamate with pre-applied (S)-2a or vehicle (0.1% DMSO). The IC50 for (S)-2a 33 (Figure S3) was 4-fold higher […]

Assay [2] addresses GluN1/GluN2C (Rattus norvegicus, UniProt Q00961). Described as above. It counts as cell-based. Here is the method: as §1, §2, §3, §4, §5, §6
Where [3] appears, read: HEK293, linear regression of 1/τinhibition vs concentration.

SMILES strings stand for the structures. Where two headings read alike, the source gives them in different places.

GluN1/GluN2C (Rattus norvegicus, UniProt Q00961), sequence (Q00961 20-1237, other chains not shown): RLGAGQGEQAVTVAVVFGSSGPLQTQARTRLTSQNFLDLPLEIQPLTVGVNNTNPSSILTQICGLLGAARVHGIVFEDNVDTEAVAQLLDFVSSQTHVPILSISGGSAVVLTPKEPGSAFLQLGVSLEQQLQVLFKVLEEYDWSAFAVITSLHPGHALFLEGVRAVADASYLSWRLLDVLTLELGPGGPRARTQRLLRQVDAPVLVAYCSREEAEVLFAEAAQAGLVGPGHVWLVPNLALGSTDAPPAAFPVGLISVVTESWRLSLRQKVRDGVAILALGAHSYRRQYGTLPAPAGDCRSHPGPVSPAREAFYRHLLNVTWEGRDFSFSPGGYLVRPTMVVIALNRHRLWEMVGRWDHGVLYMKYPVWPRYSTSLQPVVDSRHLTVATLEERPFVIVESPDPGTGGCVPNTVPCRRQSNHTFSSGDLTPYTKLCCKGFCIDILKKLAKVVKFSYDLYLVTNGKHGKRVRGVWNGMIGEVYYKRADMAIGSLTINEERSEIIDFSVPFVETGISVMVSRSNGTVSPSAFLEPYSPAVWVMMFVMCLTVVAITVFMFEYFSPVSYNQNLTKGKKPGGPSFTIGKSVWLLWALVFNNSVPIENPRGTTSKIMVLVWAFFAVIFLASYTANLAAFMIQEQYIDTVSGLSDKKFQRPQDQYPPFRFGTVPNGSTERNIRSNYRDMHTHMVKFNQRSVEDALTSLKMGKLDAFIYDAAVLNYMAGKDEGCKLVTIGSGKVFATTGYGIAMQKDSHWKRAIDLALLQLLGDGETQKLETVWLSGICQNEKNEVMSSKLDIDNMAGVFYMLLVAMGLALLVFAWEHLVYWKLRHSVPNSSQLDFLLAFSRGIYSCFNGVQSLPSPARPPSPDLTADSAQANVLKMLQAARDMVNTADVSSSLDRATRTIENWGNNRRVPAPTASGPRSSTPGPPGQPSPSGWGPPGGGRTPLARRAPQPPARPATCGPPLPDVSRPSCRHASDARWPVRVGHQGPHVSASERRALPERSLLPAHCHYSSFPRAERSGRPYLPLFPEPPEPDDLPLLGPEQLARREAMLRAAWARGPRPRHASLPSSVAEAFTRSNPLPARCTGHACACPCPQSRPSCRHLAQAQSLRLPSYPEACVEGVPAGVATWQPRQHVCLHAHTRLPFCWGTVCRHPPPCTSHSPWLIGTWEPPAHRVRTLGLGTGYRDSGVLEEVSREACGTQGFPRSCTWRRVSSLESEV
GluN1/GluN2C (Rattus norvegicus, UniProt P35439+Q00961), sequence (Q00961 20-1237, other chains not shown): as above

For orientation: koff means the rate constant with which the complex falls apart. Low readings indicate a long-lived complex, high ones a short-lived complex. Broadly, the kon is the second-order rate constant of association. A high value points to faster complex formation. Usually Kd stands for the concentration at which binding is half-saturated. Read a low Kd as a tighter complex. As usually defined, the IC50 is the point on the concentration scale where inhibition reaches its midpoint. In turn, `O=C(O)CC(F)(F)C(=O)N1N=C(c2c(-c3ccc(Cl)cc3)c3ccccc3[nH]c2=O)CC1c1ccc(Cl)cc1` (stereo not drawn) [2i] showed a koff in assay [1] (setting [3]) of 0.27 s⁻¹. The kon in assay [1] (setting [3]) worked out at 800000 M⁻¹ s⁻¹. This compound showed a Kd in assay [1] (from kON and kOFF) of 330 nM. Further, the figures for the IC50 in assay [1] (read-out: IC50 peak current responses) and in assay [1] (read-out: IC50 steady-state responses) were 5000 nM and 250 nM, respectively. Besides, the “deactivation of GluN1/GluN2C receptors” value stood at 0.61 ± 0.07 s in assay [2] (0.1 μM compound), 0.88 ± 0.13 s in assay [2] (0.3 μM compound), 1.3 ± 0.14 s in assay [2] (1 μM compound) and 2.3 ± 0.40 s in assay [2] (3 μM compound).

(Values after publication PMC10485906, “Development of a Dihydroquinoline–Pyrazoline GluN2C/2D-Selective Negative Allosteric Modulator of the N-Methyl-D-aspartate Receptor” (ACS Chemical Neuroscience, 2023).)
